Experimental data from US20100240654A1, “HYDRAZIDE DERIVATIVES” (priority 2004, published 2010).
Structures can show the parent of a compound that is named as a salt.

Columns and labels:
[1] = target: T1, human clotting factor VIIa (Homo sapiens, UniProt P08709); assay: Inhibitory activity against clotting factor VIIa (chromogenic substrate Spectrozyme FVIIa, with tissue factor); format: biochemical; conditions: 10 nmol/L TF, 5 nmol/L Factor VIIa, room temperature 40 minutes, 405 nm
T1 construct: a human clotting factor VIIa (Factor VIIa) purified sample; purchased Enzyme Research Laboratories (Factor VIIa); Calbiochem (tissue factor) HFVIIa (Factor VIIa); 612151 (tissue factor)
Procedure: Dimethylsulfoxide (DMSO) solutions were prepared with compounds of the invention at concentration of 10 mmol/L (10 mmol/L compound solutions).
One packet of tris-hydroxymethylaminomethane-preset (Tris Preset) (product of SIGMA Corp., Catalog No. T8293), 8.8 g of sodium chloride (NaCl) and 1 g of bovine serum albumin (BSA) were dissolved in 1 L of water to prepare a Tris-BSA buffer (100 mmol/L Tris, 0.15 mol/L NaCl, 0.1% BSA, pH 7.4).
The Tris-BSA buffer (180 μL) was added to the aforementioned 10 mmol/L compound solution (20 μL). A 10-fold dilution series was prepared for this mixture using the aforementioned Tris-BSA buffer, and solutions with the compound at concentrations of 1.0 mmol/L, 100, 10, 1, 0.1, 0.01 and 0.001 μmol/L were prepared (1.0 mmol-0.001 μmol/L compound solutions).
As a control, a solution was prepared by 10-fold dilution of DMSO with the Tris-BSA buffer (control 10% solution).
After dissolving one packet of Tris preset, NaCl (8.8 g) and BSA (1 g) in water (about 900 mL), there were added 1 mol/L aqueous calcium chloride (CaCl2) (15 mL) and 1 mg/mL aqueous cephalin (30 mL), and the total volume was brought to 1 L by adding water. To this solution was added a human tissue factor (TF) sample (product of Calbiochem, Catalog No. 612151) (450 μg) to a TF sample concentration of 10 nmol/L, and then a human clotting factor VIIa (Factor VIIa) purified sample (product of Enzyme Research Laboratories, Catalog No. HFVIIa) (250 μg) was added to a Factor VIIa purified sample concentration of 5 nmol/L, to prepare an enzyme solution (100 mmol/L Tris-HCl, 0.15 mol/L NaCl, 15 mmol/L CaCl2, 30 μg/mL cephalin, 1 mg/mL BSA, 10 nmol/L TF, 5 nmol/L Factor VIIa).
To 110 μL of this enzyme solution was added 15 μL of each of the 1.0 mmol-0.001 μmol/L compound solutions, and then 25 μL of a 1.0 mmol/L synthetic chromogenic substrate solution (Spectrozyme FVIIa) was added and the mixture was allowed to stand at room temperature for 40 minutes. Next, the amount of 4-nitroanilide released into the solution was quantitated by spectrophotometry (405 nm).
A control measurement was conducted in the same manner, using the control 10% solution instead of the compound solution.
This measurement yielded the enzyme reaction inhibition in the presence of 100 μmol/L to 0.1 nmol/L of each compound of the invention. The enzyme reaction inhibition at each compound concentration was subjected to non-linear regression analysis, and the IC50 value for inhibitory activity of each compound against clotting factor VIIa was calculated.

healthy human plasma = assay: Blood clotting time prolongation (prothrombin time, steel ball method); conditions: human thromboplastin, 37° C.

T1 sequence (P08709 213-466 limits assumed): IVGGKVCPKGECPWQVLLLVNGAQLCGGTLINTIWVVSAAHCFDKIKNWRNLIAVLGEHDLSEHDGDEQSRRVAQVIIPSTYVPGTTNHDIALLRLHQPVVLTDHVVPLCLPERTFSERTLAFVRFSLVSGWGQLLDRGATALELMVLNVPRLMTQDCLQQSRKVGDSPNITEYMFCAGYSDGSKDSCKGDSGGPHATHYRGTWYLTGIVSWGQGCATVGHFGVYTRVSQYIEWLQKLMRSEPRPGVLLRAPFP
T1 sequence (P08709 61-212 limits assumed): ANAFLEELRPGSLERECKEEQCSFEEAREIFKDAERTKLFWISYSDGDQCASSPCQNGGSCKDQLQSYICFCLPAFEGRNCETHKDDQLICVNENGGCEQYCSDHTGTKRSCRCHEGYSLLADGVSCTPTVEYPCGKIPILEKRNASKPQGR
T1 sequence (P13726 33-295 partner): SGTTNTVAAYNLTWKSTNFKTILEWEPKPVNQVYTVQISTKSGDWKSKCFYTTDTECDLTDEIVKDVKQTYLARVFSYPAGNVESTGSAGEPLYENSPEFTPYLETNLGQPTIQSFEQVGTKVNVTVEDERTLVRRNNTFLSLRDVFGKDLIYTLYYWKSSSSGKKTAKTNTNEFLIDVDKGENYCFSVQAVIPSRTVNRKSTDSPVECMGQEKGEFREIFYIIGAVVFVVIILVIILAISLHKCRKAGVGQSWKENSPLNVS

SMILES	IC50 [1] [nM]	h PT × 1.1: compound concentration which produced 10% prolongation compared to the control clotting time (healthy human plasma) [µM]
CCOc1cc(C(Nc2ccc(C(=N)N)cc2)C(=O)NNc2ccccc2C(=O)O)ccc1OC(C)CN(C)C.O=C(O)C(F)(F)F (centres unmarked) [Example X-251, 2-(N′-(2-(4-Carbamimidoylphenylamino)-2-(4-(2-dimethylamino-1-methylethoxy)-3-ethoxyphenyl)acetyl)hydrazino)benzoic acid trifluoroacetate]	166	0.68
CCOc1cc(C(Nc2ccc(C(=N)N)cc2)C(=O)NNC(=O)c2ccncc2Cl)ccc1OCC(=O)N(C)C.O=C(O)C(F)(F)F (centres unmarked) [Example 61, 2-(4-(1-(4-Carbamimidoylphenylamino)-2-(N′-(3-chloropyridine-4-carbonyl)hydrazino)-2-oxoethyl)-2-ethoxyphenoxy)-N,N-dimethylacetamide trifluoroacetate]	184	0.41
CCOc1cc(C(Nc2ccc(C(=N)N)cc2)C(=O)NNc2ccccc2C(=O)O)ccc1OCC(=O)N(C)C.O=C(O)C(F)(F)F (centres unmarked) [Example X-246, 2-[N′-[2-(4-Carbamimidoylphenylamino)-2-(4-dimethylcarbamoylmethoxy-3-ethoxyphenyl)acetyl]hydrazino]benzoic acid trifluoroacetate]	165	0.90
CCOc1cc(C(Nc2ccc(C(=N)N)cc2)C(=O)NNc2ccccc2OC)ccc1OCCN(C)C.O=C(O)C(F)(F)F (centres unmarked) [Example 56, 4-(((4-(2-Dimethylaminoethoxy)-3-ethoxyphenyl)-(N′-(2-methoxyphenyl)hydrazinocarbonyl)methyl)amino)benzamidine trifluoroacetate]	198	0.41
CCOc1cc(C(Nc2ccc(C(=N)N)cc2)C(=O)NNC(=O)c2cnccc2C)ccc1OCCOC.O=C(O)C(F)(F)F (centres unmarked) [Example 76, 4-(1-(3-Ethoxy-4-(2-methoxyethoxy)phenyl)-2-(N′-(4-methylpyridine-3-carbonyl)hydrazino)-2-oxoethylamino)benzamidine trifluoroacetate]	169	0.63
COc1cc(F)c(C(Nc2ccc(C(=N)N)cc2)C(=O)NNC(=O)c2ccccc2Br)cc1OC.O=C(O)C(F)(F)F (centres unmarked) [Example 72, 4-(2-(N’-(2-Bromobenzoyl)hydrazino)-1-(2-fluoro-4,5-dimethoxyphenyl)-2-oxoethylamino)benzamidine trifluoroacetate]	259	1.20
CCOc1cc(C(Nc2ccc(C(=N)N)cc2)C(=O)NNC(=O)c2ccncc2F)ccc1OCC(=O)N(C)C.O=C(O)C(F)(F)F (centres unmarked) [Example 60, 2-(4-(1-(4-Carbamimidoylphenylamino)-2-(N′-(3-fluoropyridine-4-carbonyl)-hydrazino)-2-oxoethyl)-2-ethoxyphenoxy)-N,N-dimethyl-acetamide trifluoroacetate]	203	0.30
CCOc1cc(C(Nc2ccc(C(=N)N)cc2)C(=O)NNC(=O)c2ccccc2Cl)ccc1OC(C)CN(C)C.O=C(O)C(F)(F)F (centres unmarked) [Example X-252, 4-(2-(N′-(2-Chlorobenzoyl)hydrazino)-1-(4-(2-dimethylamino-1-methylethoxy)-3-ethoxyphenyl)-2-oxoethylamino)benzamidine trifluoroacetate]	98	0.76
COc1cc(F)c(C(Nc2ccc(C(=N)N)cc2)C(=O)NNC(=O)c2ccccc2Cl)cc1OC.O=C(O)C(F)(F)F (centres unmarked) [Example 23, 4-(2-(N′-(2-Chlorobenzoyl)hydrazino)-1-(2-fluoro-4,5-dimethoxyphenyl)-2-oxoethylamino)benzamidine trifluoroacetate]	255	1.20
CCOc1cc(C(Nc2ccc(C(=N)N)cc2)C(=O)NNc2ccccc2C(=O)O)ccc1OC(C)C.O=C(O)C(F)(F)F (centres unmarked) [Example 3, 2-(N′-(2-(4-Carbamimidoylphenylamino)-2-(3-ethoxy-4-isopropoxyphenyl)acetyl)hydrazino)benzoic acid trifluoroacetate]	51	1.00
CCOc1cc(C(Nc2ccc(C(=N)N)cc2)C(=O)NNC(=O)c2ccncc2Cl)ccc1OCCOC.O=C(O)C(F)(F)F (centres unmarked) [Example 78, 4-(2-(N′-(3-Chloropyridine-4-carbonyl)hydrazino)-1-(3-ethoxy-4-(2-methoxyethoxy)phenyl)-2-oxoethylamino)benzamidine trifluoroacetate]	49	0.42
CCOc1cc(C(Nc2ccc(C(=N)N)cc2)C(=O)NNC(=O)c2ccncc2F)ccc1OCC(C)(C)N.O=C(O)C(F)(F)F (centres unmarked) [Example X-248, 4-[1-[4-(2-Amino-2-methylpropoxy)-3-ethoxyphenyl]-2-[N′-(3-fluoropyridine-4-carbonyl)-hydrazino]-2-oxoethylamino]benzamidine trifluoroacetate]	173	0.83
CCOc1cc(C(Nc2ccc(C(=N)N)cc2)C(=O)NNC(=O)c2ccccc2[N+](=O)[O-])ccc1OC(C)C.O=C(O)C(F)(F)F (centres unmarked) [Example 32, 4-(1-(3-Ethoxy-4-isopropoxyphenyl)-2-(N′-(2-nitrobenzoyl)hydrazino)-2-oxoethylamino)benzamidine trifluoroacetate]	110	0.80
CCOc1cc(C(Nc2ccc(C(=N)N)cc2)C(=O)NNS(=O)(=O)c2ccccc2S(C)(=O)=O)ccc1OC(C)C.O=C(O)C(F)(F)F (centres unmarked) [Example 10]	–	1.20
CCCOc1cc(OC)cc(C(Nc2ccc(C(=N)N)cc2)C(=O)NNC(=O)c2ccncc2)c1F.O=C(O)C(F)(F)F (centres unmarked) [Example 81, 4-{1-(2-Fluoro-5-methoxy-3-propoxyphenyl)-2-oxo-2-[N′-(pyridine-4-carbonyl)hydrazino]ethylamino}benzamidine trifluoroacetate]	78	1.20
CCOc1cc(C(Nc2ccc(C(=N)N)cc2)C(=O)NNC(=O)c2ccncc2Cl)ccc1OC(C)C.O=C(O)C(F)(F)F (centres unmarked) [Example 33, 4-(2-(N′-(3-Chloropyridine-4-carbonyl)hydrazino)-1-(3-ethoxy-4-isopropoxyphenyl)-2-oxoethylamino)benzamidine trifluoroacetate]	57	1.10
CCOc1cc(C(Nc2ccc(C(=N)N)cc2)C(=O)NNC(=O)c2cnccc2Cl)ccc1OC(C)C.O=C(O)C(F)(F)F (centres unmarked) [Example 25, 4-(2-(N′-(4-Chloropyridine-3-carbonyl)hydrazino)-1-(3-ethoxy-4-isopropoxyphenyl)-2-oxoethylamino)benzamidine trifluoroacetate]	84	1.20
CCOc1cc(C(Nc2ccc(C(=N)N)cc2)C(=O)NNS(=O)(=O)c2ccccc2S(C)(=O)=O)ccc1OC(C)C.O=C(O)C(F)(F)F (centres unmarked) [Example 10, 4-(1-(3-Ethoxy-4-isopropoxyphenyl)-2-(2-(2-methanesulfonyl)phenylsulfonyl)hydrazino)-2-oxoethylamino)benzamidine trifluoroacetate]	233	–
CCOc1cc(C(Nc2ccc(C(=N)N)cc2)C(=O)NNC(=O)c2ccccc2Cl)ccc1OCC(C)(C)N (centres unmarked) [Example X-247, 4-[1-[4-(2-Amino-2-methylpropoxy)-3-ethoxyphenyl]-2-[N′-(2-chlorobenzoyl)-hydrazino]-2-oxoethylamino]benzamidine trifluoroacetate]	336	–
